{
  "source": "patent US12037333B2",
  "about": "“Pyridopyrazine and pyridotriazine inhibitors of influenza virus replication” (priority 2018, dated 2024)",
  "tested_on": "Influenza type A (strain A/PR/8/34, ATCC VR-95)",
  "assay": "Influenza antiviral assay: inhibition of virus-induced cytopathic effects (CPE) in MDCK cells, XTT dye reduction",
  "assay_type": "cell-based",
  "conditions": "Influenza A virus, H1N1 / PR/8, MDCK, 96 h, strain A/PR/8/34, MDCK cells, CPE inhibition at 4 days",
  "data": [
    {"smiles": "CN1CN(C23c4ccccc4CC2Cc2ccccc23)n2ccc(=O)c(O)c2C1=O", "note": "(centres unmarked) [Compound A1, 1-(9a, 10-dihydroindeno[1,2-a]inden-4b(9H)-yl)-5-hydroxy-3-methyl-2,3-dihydro-1H-pyrido[2,1-f][1,2,4]triazine-4,6-dione]", "values": [
      {"measurement": "EC50", "result": "< 125", "unit": "nM"}
    ]},
    {"smiles": "O=C1c2c(O)c(=O)ccn2N(C23c4ccccc4CC2Cc2ccccc23)CN1CC1CC1", "note": "(centres unmarked) [Compound A2, 3-Cyclopropylmethyl-1-(9a,10-dihydro-9H-indeno[1,2-a]inden-4b-yl)-5-hydroxy-2,3-dihydro-1H-pyrido[2,1-f][1,2,4]triazine-4,6-dione]", "values": [
      {"measurement": "EC50", "result": "125 to 250", "unit": "nM"}
    ]},
    {"smiles": "CN1CN(C23c4ccc(F)cc4CC2Cc2cc(F)ccc23)n2ccc(=O)c(O)c2C1=O", "note": "(centres unmarked) [Compound A3, 1-(2,7-Difluoro-9a,10-dihydro-9H-indeno[1,2-a]inden-4b-yl)-5-hydroxy-3-methyl-2,3-dihydro-1H-pyrido[2,1-f][1,2,4]triazine-4,6-dione]", "values": [
      {"measurement": "EC50", "result": "125 to 250", "unit": "nM"}
    ]},
    {"smiles": "O=C1c2c(O)c(=O)ccn2N(C23c4ccccc4CC2Cc2ccccc23)CN1Cc1ccccc1", "note": "(centres unmarked) [Compound A4, 3-Benzyl-1-(9a,10-dihydro-9H-indeno[1,2-a]inden-4b-yl)-5-hydroxy-2,3-dihydro-1H-pyrido[2,1-f][1,2,4]triazine-4,6-dione]", "values": [
      {"measurement": "EC50", "result": "> 500", "unit": "nM"}
    ]},
    {"smiles": "CN1CN(C23c4ccccc4CC2Cc2c3ccc(F)c2F)n2ccc(=O)c(O)c2C1=O", "note": "(centres unmarked) [Compound A6, 1-(1,2-Difluoro-9a,10-dihydro-9H-indeno[1,2-a]inden-4b-yl)-5-hydroxy-3-methyl-2,3-dihydro-1H-pyrido[2,1-f][1,2,4]triazine-4,6-dione]", "values": [
      {"measurement": "EC50", "result": "< 125", "unit": "nM"}
    ]},
    {"smiles": "O=C1c2c(O)c(=O)ccn2N(C23c4ccccc4CC2Cc2ccccc23)CN1CCOc1ccccc1", "note": "(centres unmarked) [Compound A7, 1-(9a,10-Dihydro-9H-indeno[1,2-a]inden-4b-yl)-5-hydroxy-3-(2-phenoxy-ethyl)-2,3-dihydro-1H-pyrido[2,1-t][1,2,4]triazine-4,6-dione]", "values": [
      {"measurement": "EC50", "result": "> 500", "unit": "nM"}
    ]},
    {"smiles": "CN1CN(C23c4cc(F)c(F)cc4CC2Cc2cc(F)c(F)cc23)n2ccc(=O)c(O)c2C1=O", "note": "(centres unmarked) [Compound A8, 5-Hydroxy-3-methyl-1-(2,3,6,7-tetrafluoro-9a,10-dihydro-9H-indeno[1,2-a]inden-4b-yl)-2,3-dihydro-1H-pyrido[2,1-f][1,2,4]triazine-4,6-dione]", "values": [
      {"measurement": "EC50", "result": "375 to 500", "unit": "nM"}
    ]},
    {"smiles": "O=C1c2c(O)c(=O)ccn2N(C23c4ccccc4CC2Cc2c3ccc(F)c2F)CN1CC1CC1", "note": "(centres unmarked) [Compound A9, 3-Cyclopropylmethyl-1-(1,2-difluoro-9a,10-dihydro-9H-indeno[1,2-a]inden-4b-yl)-5-hydroxy-2,3-dihydro-1H-pyrido[2,1-f][1,2,4]triazine-4,6-dione]", "values": [
      {"measurement": "EC50", "result": "> 500", "unit": "nM"}
    ]},
    {"smiles": "CCN1CN(C23c4ccccc4CC2Cc2cc(F)c(F)cc23)n2ccc(=O)c(O)c2C1=O", "note": "(centres unmarked) [Compound A10, 1-(2,3-Difluoro-9a,10-dihydro-9H-indeno[1,2-a]inden-4b-yl)-3-ethyl-5-hydroxy-2,3-dihydro-1H-pyrido[2,1-f][1,2,4]triazine-4,6-dione]", "values": [
      {"measurement": "EC50", "result": "250 to 375", "unit": "nM"}
    ]},
    {"smiles": "O=C1c2c(O)c(=O)ccn2N(C23c4ccccc4CC2Cc2c3ccc(F)c2F)CN1Cc1ccccc1", "note": "(centres unmarked) [Compound A11, 3-Benzyl-1-(1,2-difluoro-9a,10-dihydro-9H-indeno[1,2-a]inden-4b-yl)-5-hydroxy-2,3-dihydro-1H-pyrido[2,1-t][1,2,4]triazine-4,6-dione]", "values": [
      {"measurement": "EC50", "result": "> 500", "unit": "nM"}
    ]},
    {"smiles": "CN1CN(C23c4cccc(F)c4CC2Cc2c(F)cccc23)n2ccc(=O)c(O)c2C1=O", "note": "(centres unmarked) [Compound A12, 1-(1,8-Difluoro-9a,10-dihydro-9H-indeno[1,2-a]inden-4b-yl)-5-hydroxy-3-methyl-2,3-dihydro-1H-pyrido[2,1-f][1,2,4]triazine-4,6-dione]", "values": [
      {"measurement": "EC50", "result": "< 125", "unit": "nM"}
    ]},
    {"smiles": "O=C1c2c(O)c(=O)ccn2N(C23c4ccccc4CC2Cc2cc(F)c(F)cc23)CN1CC1CC1", "note": "(centres unmarked) [Compound A13, 3-Cyclopropylmethyl-1-(2,3-difluoro-9a,10-dihydro-9H-indeno[1,2-a]inden-4b-yl)-5-hydroxy-2,3-dihydro-1H-pyrido[2,1-f][1,2,4]triazine-4,6-dione]", "values": [
      {"measurement": "EC50", "result": "< 125", "unit": "nM"}
    ]},
    {"smiles": "CCN1CN(C23c4ccccc4CC2Cc2c3ccc(F)c2F)n2ccc(=O)c(O)c2C1=O", "note": "(centres unmarked) [Compound A14, 1-(1,2-Difluoro-9a,10-dihydro-9H-indeno[1,2-a]inden-4b-yl)-3-ethyl-5-hydroxy-2,3-dihydro-1H-pyrido[2,1-f][1,2,4]triazine-4,6-dione]", "values": [
      {"measurement": "EC50", "result": "< 125", "unit": "nM"}
    ]},
    {"smiles": "O=C1c2c(O)c(=O)ccn2N(C23c4ccccc4CC2Cc2c3ccc(F)c2F)CN1CC1CCOCC1", "note": "(centres unmarked) [Compound A15, 1-(1,2-Difluoro-9a,10-dihydro-9H-indeno[1,2-a]inden-4b-yl)-5-hydroxy-3-(tetrahydro-pyran-4-ylmethyl)-2,3-dihydro-1H-pyrido[2,1-f][1,2,4]triazine-4,6-dione]", "values": [
      {"measurement": "EC50", "result": "< 125", "unit": "nM"}
    ]},
    {"smiles": "O=C1c2c(O)c(=O)ccn2N(C23c4ccccc4CC2Cc2cc(F)c(F)cc23)CN1CC1CCOCC1", "note": "(centres unmarked) [Compound A16, 1-(2,3-Difluoro-9a,10-dihydro-9H-indeno[1,2-a]inden-4b-yl)-5-hydroxy-3-(tetrahydro-pyran-4-ylmethyl)-2,3-dihydro-1H-pyrido[2,1-f][1,2,4]triazine-4,6-dione]", "values": [
      {"measurement": "EC50", "result": "< 125", "unit": "nM"}
    ]},
    {"smiles": "O=C1c2c(O)c(=O)ccn2N(C23c4ccccc4CC2Cc2c3ccc(F)c2F)CN1Cc1ccc(F)cc1", "note": "(centres unmarked) [Compound A17, 1-(1,2-Difluoro-9a,10-dihydro-9H-indeno[1,2-a]inden-4b-yl)-3-(4-fluoro-benzyl)-5-hydroxy-2,3-dihydro-1H-pyrido[2,1-f][1,2,4]triazine-4,6-dione]", "values": [
      {"measurement": "EC50", "result": "125 to 250", "unit": "nM"}
    ]},
    {"smiles": "CN1CN(C23c4ccccc4CC2Cc2cc(F)c(F)cc23)n2ccc(=O)c(O)c2C1=O", "note": "(centres unmarked) [Compound A19, 1-(2,3-difluoro-9a,10-dihydroindeno[1,2-a]inden-4b(9H)-yl)-5-hydroxy-3-methyl-2,3-dihydro-1H-pyrido[2,1-f][1,2,4]triazine-4,6-dione]", "values": [
      {"measurement": "EC50", "result": "< 125", "unit": "nM"}
    ]},
    {"smiles": "CN1CN(C23c4cc(F)ccc4CC2Cc2ccc(F)cc23)n2ccc(=O)c(O)c2C1=O", "note": "(centres unmarked) [Compound A20, 1-(3,6-difluoro-9a,10-dihydroindeno[1,2-a]inden-4b(9H)-yl)-5-hydroxy-3-methyl-2,3-dihydro-1H-pyrido[2,1-f][1,2,4]triazine-4,6-dione]", "values": [
      {"measurement": "EC50", "result": "< 125", "unit": "nM"}
    ]},
    {"smiles": "O=C1c2c(O)c(=O)ccn2N(C23c4ccccc4CC2Cc2cc(F)c(F)cc23)CN1Cc1ccccc1", "note": "(centres unmarked) [Compound A21, 3-benzyl-1-(2,3-difluoro-9a,10-dihydroindeno[1,2-a]inden-4b(9H)-yl)-5-hydroxy-2,3-dihydro-1H-pyrido[2,1-f][1,2,4]triazine-4,6-dione]", "values": [
      {"measurement": "EC50", "result": "250 to 375", "unit": "nM"}
    ]},
    {"smiles": "O=C1c2c(O)c(=O)ccn2N(C23c4ccccc4CC2Cc2cc(F)c(F)cc23)CN1CCc1ccccc1", "note": "(centres unmarked) [Compound A22, 1-(2,3-difluoro-9a,10-dihydroindeno[1,2-a]inden-4b(9H)-yl)-5-hydroxy-3-phenethyl-2,3-dihydro-1H-pyrido[2,1-f][1,2,4]triazine-4,6-dione]", "values": [
      {"measurement": "EC50", "result": "250 to 375", "unit": "nM"}
    ]},
    {"smiles": "O=C1c2c(O)c(=O)ccn2N(C23c4ccccc4CC2Cc2cc(F)c(F)cc23)CN1Cc1ccc(F)cc1", "note": "(centres unmarked) [Compound A23, 1-(2,3-Difluoro-9a,10-dihydro-9H-indeno[1,2-a]inden-4b-yl)-3-(4-fluoro-benzyl)-5-hydroxy-2,3-dihydro-1H-pyrido[2,1-f][1,2,4]triazine-4,6-dione]", "values": [
      {"measurement": "EC50", "result": "> 500", "unit": "nM"}
    ]},
    {"smiles": "O=C1c2c(O)c(=O)ccn2N(C23c4ccccc4CC2Cc2cc(F)c(F)cc23)CN1Cc1cccc(F)c1", "note": "(centres unmarked) [Compound A24, 1-(2,3-difluoro-9a,10-dihydroindeno[1,2-a]inden-4b(9H)-yl)-3-(3-fluorobenzyl)-5-hydroxy-2,3-dihydro-1H-pyrido[2,1-f][1,2,4]triazine-4,6-dione]", "values": [
      {"measurement": "EC50", "result": "> 500", "unit": "nM"}
    ]},
    {"smiles": "O=C1c2c(O)c(=O)ccn2N(C23c4ccccc4CC2Cc2c3ccc(F)c2F)CN1CCc1ccccc1", "note": "(centres unmarked) [Compound A25, 1-(1,2-difluoro-9a,10-dihydroindeno[1,2-a]inden-4b(9H)-yl)-5-hydroxy-3-phenethyl-2,3-dihydro-1H-pyrido[2,1-f][1,2,4]triazine-4,6-dione]", "values": [
      {"measurement": "EC50", "result": "< 125", "unit": "nM"}
    ]},
    {"smiles": "O=C1c2c(O)c(=O)ccn2N(C23c4ccccc4CC2Cc2c3ccc(F)c2F)CN1Cc1cccc(F)c1", "note": "(centres unmarked) [Compound A26, 1-(1,2-difluoro-9a,10-dihydroindeno[1,2-a]inden-4b(9H)-yl)-3-(3-fluorobenzyl)-5-hydroxy-2,3-dihydro-1H-pyrido[2,1-f][1,2,4]triazine-4,6-dione]", "values": [
      {"measurement": "EC50", "result": "375 to 500", "unit": "nM"}
    ]},
    {"smiles": "O=C1c2c(O)c(=O)ccn2N(C23c4ccccc4CC2Cc2c3ccc(F)c2F)CN1CCc1cccc(F)c1", "note": "(centres unmarked) [Compound A27, 1-(1,2-difluoro-9a,10-dihydroindeno[1,2-a]inden-4b(9H)-yl)-3-(3-fluorophenethyl)-5-hydroxy-2,3-dihydro-1H-pyrido[2,1-f][1,2,4]triazine-4,6-dione]", "values": [
      {"measurement": "EC50", "result": "125 to 250", "unit": "nM"}
    ]},
    {"smiles": "O=C1c2c(O)c(=O)ccn2N(C23c4ccccc4CC2Cc2cc(F)c(F)cc23)CN1CCc1cccc(F)c1", "note": "(centres unmarked) [Compound A28, 1-(2,3-difluoro-9a,10-dihydroindeno[1,2-a]inden-4b(9H)-yl)-3-(3-fluorophenethyl)-5-hydroxy-2,3-dihydro-1H-pyrido[2,1-f][1,2,4]triazine-4,6-dione]", "values": [
      {"measurement": "EC50", "result": "125 to 250", "unit": "nM"}
    ]},
    {"smiles": "O=C1c2c(O)c(=O)ccn2N(C23c4ccccc4CC2Cc2cc(F)c(F)cc23)CN1CCc1ccc(F)cc1", "note": "(centres unmarked) [Compound A29, 1-(2,3-difluoro-9a,10-dihydroindeno[1,2-a]inden-4b(9H)-yl)-3-(4-fluorophenethyl)-5-hydroxy-2,3-dihydro-1H-pyrido[2,1-f][1,2,4]triazine-4,6-dione]", "values": [
      {"measurement": "EC50", "result": "125 to 250", "unit": "nM"}
    ]},
    {"smiles": "CN1CN(C23C(=Cc4ccccc42)Cc2ccccc23)n2ccc(=O)c(O)c2C1=O", "note": "(centres unmarked) [Compound A30, 5-hydroxy-1-(indeno[1,2-a]inden-4b(9H)-yl)-3-methyl-2,3-dihydro-1H-pyrido[2,1-f][1,2,4]triazine-4,6-dione]", "values": [
      {"measurement": "EC50", "result": "< 125", "unit": "nM"}
    ]},
    {"smiles": "O=C1c2c(O)c(=O)ccn2N(C23c4ccccc4CC2Cc2ccccc23)CN1Cc1cccc(Cl)c1F", "note": "(centres unmarked) [Compound A31, 3-(3-chloro-2-fluorobenzyl)-1-(9a,10-dihydroindeno[1,2-a]inden-4b(9H)-yl)-5-hydroxy-2,3-dihydro-1H-pyrido[2,1-f][1,2,4]triazine-4,6-dione]", "values": [
      {"measurement": "EC50", "result": "> 500", "unit": "nM"}
    ]}
  ]
}
